Experiments:
bermuda-grass = assay: Test D bermudagrass; format: in vivo, Cynodon dactylon; settings: Preemergence, 0 to 100 scale
In short: (§1)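 Greenhouse pots, sandy loam, single species per pot. Preemergence tests: soil-surface application ≤1 day after planting. Compound formulated in non-phytotoxic solvent with surfactant. Visual rating 14–21 DAT, scale 0–100.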

tall mallow = assay: Test D tall mallow; format: in vivo, Malva sylvestris; settings: Preemergence, 0 to 100 scale
In short: as §1

common groundsel = assay: Test D common groundsel; format: in vivo, Senecio vulgaris; settings: Preemergence, 0 to 100 scale
Description: (§2) Seeds, tubers, or plant parts of Alexandergrass (Brachiaria plantaginea), bermuda-grass (Cynodon dactylon), common pursiane (Portulaca oleracea), common ragweed (Ambrosia elatior), common groundsel (Senecio vulgaris), dallisgrass (Paspalum dilatatum), goosegrass (Eleusine indica), guineagrass (Panicum maximum), itchgrass (Rottboellia exaltata), Johnson grass (Sorghum halepense), large crabgrass (Digitaria sanguinalis), pitted morningglory (Ipomoea lacunosa), purple nutsedge (Cyperus rotundus), sandbur (Cenchrus echinatus), sourgrass (Trichachne insularis), Spanishneedles (Bidens bipinnata), surinam grass (Brachiaria decumbens) and tall mallow (Malva sylvestris) were planted into greenhouse pots of flats containing greenhouse planting medium. Plant species were grown in separate pots or individual compartments. Preemergence applications were made within one day of planting the seed or plant part.
(§3) Test chemicals were formulated in a non-phytotoxic solvent mixture which included a surfactant and applied preemergence to the surface of the pot containing seeds in a sandy loam soil. Untreated control pots and treated pots were placed in the greenhouse for growth and visually evaluated for injury 14 to 21 days after herbicide application. Plant response ratings, summarized in Table C, are based on a 0 to 100 scale where 0 is no injury and 100 is complete control. A dash (−) response means no test result.

goosegrass = assay: Test D goosegrass; format: in vivo, Eleusine indica; settings: Preemergence, 0 to 100 scale
Description: as §2, §3

guineagrass = assay: Test D guineagrass; format: in vivo, Panicum maximum; settings: Preemergence, 0 to 100 scale
Description: as §2, §3

purple nutsedge [1] = assay: Test D purple nutsedge; format: in vivo, Cyperus rotundus; settings: Preemergence, 0 to 100 scale
Description: as §2, §3

common pursiane = assay: Test D common purslane; format: in vivo, Portulaca oleracea
In short: as §1

Johnson grass = assay: Test D Johnson grass; format: in vivo, Sorghum halepense; settings: Preemergence, 0 to 100 scale
In short: as §1

Spanishneedles = assay: Test D Spanishneedles; format: in vivo, Bidens bipinnata; settings: Preemergence, 0 to 100 scale
Description: as §2, §3

purple nutsedge [2] = assay: Test C postemergence purple nutsedge; format: in vivo, Cyperus rotundus; settings: 0 to 100 scale, 0 no effect, 100 complete control
Description: Compounds evaluated in this test were formulated in a non-phytotoxic solvent mixture which included a surfactant and applied to plants that were grown for various periods of time before treatment (postemergence application). A mixture of sandy loam soil and greenhouse potting mix in a 60:40 ratio was used for the postemergence test.
Plantings of these crops and weed species were adjusted to produce plants of appropriate size for the postemergence test. All plant species were grown using normal greenhouse practices. Crop and weed species include arrowleaf sida (Sida rhombifolia), barnyardgrass (Echinochloa crus-galli), cocklebur (Xanthium strumarium), common ragweed (Ambrosia elatior), corn (Zea mays), cotton (Gossypium hirsutum), eastern black nightshade (Solanum ptycanthum), fall panicum (Panicum dichotomiflorum), field bindweed (Convolvulus arvensis), giant foxtail (Setaria faberii), hairy beggarticks (Bidens pilosa), ivyleaf morningglory (Ipomoea hederacea), johnsongrass (Sorghum halepense), ladysthumb smartweed (Polygonum persicaria), lambsquarters (Chenopodium album), large crabgrass (Digitaria sanguinalis), purple nutsedge (Cyperus rotundus), redroot pigweed (Amaranthus retroflexus), soybean (Glycine max), surinam grass (Brachiaria decumbens), velvetleaf (Abutilon theophrasti) and wild poinsettia (Euphorbia heterophylla).
Treated plants and untreated controls were maintained in a greenhouse for approximately 14, to 21 days, after which all treated plants were compared to untreated controls and visually evaluated. Plant response ratings, summarized in Table C, were based upon a 0 to 100 scale where 0 was no effect and 100 was complete control. A dash response (−) means no test result.

field bindweed = assay: Test C postemergence field bindweed; format: in vivo, Convolvulus arvensis; settings: 0 to 100 scale, 0 no effect, 100 complete control
In short: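 Visual ratings on a 0 to 100 scale, where 0 means no effect and 100 complete control, were made versus untreated controls roughly 14 to 21 days after postemergence treatment. Test compounds were formulated in a non-phytotoxic solvent mixture containing a surfactant.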

[3] = Rate 32 g/ha, 0 no injury, 100 complete control
[4] = Rate 64 g/ha, 0 no injury, 100 complete control
[5] = Rate 125 g/ha, 0 no injury, 100 complete control
[6] = Rate 32 g/ha; Preemergence; 0 to 100 scale, 0 no injury, 100 complete control
[7] = Rate 64 g/ha, Preemergence; 0 to 100 scale, 0 no injury, 100 complete control
[8] = Rate 125 g/ha, Preemergence; 0 to 100 scale, 0 no injury, 100 complete control
[9] = Rate 250 g/ha; Preemergence; 0 to 100 scale
[10] = Rate 16 g/ha, 0 no injury, 100 complete control

Cc1cccc(C)c1-n1c(=O)on(C(=O)N(c2ccc(F)cc2F)C(C)C)c1=O [Compound 28]
Plant response rating, Bermudagrass (bermuda-grass; [3]): 85 | Plant response rating, Bermudagrass (bermuda-grass; [4]): 100 | Plant response rating, Bermudagrass (bermuda-grass; [5]): 100 | Plant response rating, Bermudagrass (bermuda-grass; Rate 250 g/ha): 100 | Plant response rating, Tall Mallow (tall mallow; [3]): 0 | Tall Mallow plant response rating (tall mallow; [4]): 0 | Tall Mallow plant response rating (tall mallow; [5]): 0 | Plant response rating, Tall Mallow (tall mallow; Rate 250 g/ha): 0 | Plant response rating, Com. groundsel (common groundsel; [3]): 0 | Plant response rating, Com. groundsel (common groundsel; [4]): 0 | Plant response rating, Com. groundsel (common groundsel; [5]): 0 | Plant response rating, Com. groundsel (common groundsel; Rate 250 g/ha): 0 | Plant response rating, Goosegrass (goosegrass; [3]): 0 | Plant response rating, Goosegrass (goosegrass; [4]): 85 | Plant response rating, Goosegrass (goosegrass; [5]): 98 | Plant response rating, Goosegrass (goosegrass; Rate 250 g/ha): 100 | Plant response rating, Guineagrass (guineagrass; [3]): 40 | Plant response rating, Guineagrass (guineagrass; [4]): 65 | Plant response rating, Guineagrass (guineagrass; [5]): 75 | Plant response rating, Guineagrass (guineagrass; Rate 250 g/ha): 98 | Plant response rating, Purple nutsedge (purple nutsedge [1]; [3]): 0 | Purple nutsedge plant response rating (purple nutsedge [1]; [4]): 0 | Purple nutsedge plant response rating (purple nutsedge [1]; [5]): 0 | Plant response rating, Purple nutsedge (purple nutsedge [1]; Rate 250 g/ha): 0 | Plant response rating, C. purslane (common pursiane; [6]): 0 | Plant response rating, C. purslane (common pursiane; [7]): 0 | Plant response rating, C. purslane (common pursiane; [8]): 0 | Plant response rating, C. purslane (common pursiane; [9]): 0 | Plant response rating Johnsongrass (Johnson grass; [3]): 0 | Plant response rating Johnsongrass (Johnson grass; [4]): 0 | Plant response rating Johnsongrass (Johnson grass; [5]): 0 | Plant response rating Johnsongrass (Johnson grass; Rate 250 g/ha): 0 | Plant response rating, Spanishneedles (Spanishneedles; [3]): 0 | Spanishneedles plant response rating (Spanishneedles; [4]): 60 | Spanishneedles plant response rating (Spanishneedles; [5]): 75

CCn1c(=O)on(C(=O)N(c2ccc(F)cc2)C(C)C)c1=O [Compound 107]
Plant response rating, Bermudagrass (bermuda-grass; [10]): 85 | Plant response rating, Bermudagrass (bermuda-grass; [3]): 100 | Plant response rating, Bermudagrass (bermuda-grass; [4]): 100 | Plant response rating, Bermudagrass (bermuda-grass; [5]): 100 | Plant response rating, Bermudagrass (bermuda-grass; Rate 250 g/ha): 100 | Plant response rating, Bermudagrass (bermuda-grass; Rate 500 g/ha): 100 | Plant response rating, Purple nutsedge (purple nutsedge [2]; Rate 140 g/ha): 0 | Plant response rating, Purple nutsedge (purple nutsedge [2]; Rate 280 g/ha): 0 | Plant response rating, Purple nutsedge (purple nutsedge [2]; Rate 560 g/ha): 10 | Plant response rating, Purple nutsedge (purple nutsedge [2]; Rate 1120 g/ha): 10 | Plant response rating, Tall Mallow (tall mallow; [10]): 0 | Plant response rating, Tall Mallow (tall mallow; [3]): 0 | Tall Mallow plant response rating (tall mallow; [4]): 0 | Tall Mallow plant response rating (tall mallow; [5]): 90 | Plant response rating, Tall Mallow (tall mallow; Rate 250 g/ha): 98 | Plant response rating, Tall Mallow (tall mallow; Rate 500 g/ha): 100 | Plant response rating, Com. groundsel (common groundsel; [10]): 40 | Plant response rating, Com. groundsel (common groundsel; [3]): 75 | Plant response rating, Com. groundsel (common groundsel; [4]): 98 | Plant response rating, Com. groundsel (common groundsel; [5]): 100 | Plant response rating, Com. groundsel (common groundsel; Rate 250 g/ha): 100 | Plant response rating, Com. groundsel (common groundsel; Rate 500 g/ha): 100 | Plant response rating, Goosegrass (goosegrass; [10]): 85 | Plant response rating, Goosegrass (goosegrass; [3]): 98 | Plant response rating, Goosegrass (goosegrass; [4]): 100 | Plant response rating, Goosegrass (goosegrass; [5]): 100 | Plant response rating, Goosegrass (goosegrass; Rate 250 g/ha): 100 | Plant response rating, Goosegrass (goosegrass; Rate 500 g/ha): 100 | Plant response rating, Guineagrass (guineagrass; [10]): 65 | Plant response rating, Guineagrass (guineagrass; [3]): 75 | Plant response rating, Guineagrass (guineagrass; [4]): 100 | Plant response rating, Guineagrass (guineagrass; [5]): 100 | Plant response rating, Guineagrass (guineagrass; Rate 250 g/ha): 100 | Plant response rating, Guineagrass (guineagrass; Rate 500 g/ha): 100 | Plant response rating, Purple nutsedge (purple nutsedge [1]; [10]): 0 | Plant response rating, Purple nutsedge (purple nutsedge [1]; [3]): 0 | Purple nutsedge plant response rating (purple nutsedge [1]; [4]): 20 | Purple nutsedge plant response rating (purple nutsedge [1]; [5]): 65 | Plant response rating, Purple nutsedge (purple nutsedge [1]; Rate 250 g/ha): 85 | Plant response rating, Purple nutsedge (purple nutsedge [1]; Rate 500 g/ha): 85 | Plant response rating, C. purslane (common pursiane; Rate 16 g/ha; Preemergence; 0 to 100 scale, 0 no injury, 100 complete control): 0 | Plant response rating, C. purslane (common pursiane; [6]): 0 | Plant response rating, C. purslane (common pursiane; [7]): 0 | Plant response rating, C. purslane (common pursiane; [8]): 0 | Plant response rating, C. purslane (common pursiane; [9]): 0 | Plant response rating, C. purslane (common pursiane; Rate 500 g/ha, Preemergence; 0 to 100 scale): 100 | Plant response rating, C. purslane (common pursiane; Rate 500 g/ha; Preemergence; 0 to 100 scale): 0 | Plant response rating Johnsongrass (Johnson grass; [10]): 20 | Plant response rating Johnsongrass (Johnson grass; [3]): 85 | Plant response rating Johnsongrass (Johnson grass; [4]): 90 | Plant response rating Johnsongrass (Johnson grass; [5]): 90 | Plant response rating Johnsongrass (Johnson grass; Rate 250 g/ha): 98 | Plant response rating Johnsongrass (Johnson grass; Rate 500 g/ha): 100 | Plant response rating, Spanishneedles (Spanishneedles; [10]): 0 | Plant response rating, Spanishneedles (Spanishneedles; [3]): 0 | Spanishneedles plant response rating (Spanishneedles; [4]): 0 | Spanishneedles plant response rating (Spanishneedles; [5]): 20 | Plant response rating, Spanishneedles (Spanishneedles; Rate 500 g/ha): 100 | Plant response rating Field bindweed (field bindweed; Rate 140 g/ha): 0 | Plant response rating Field bindweed (field bindweed; Rate 280 g/ha): 0 | Plant response rating Field bindweed (field bindweed; Rate 560 g/ha): 30 | Plant response rating Field bindweed (field bindweed; Rate 1120 g/ha): 60

— US6737383B1, “Herbicidal oxadiazolidines” (priority 1999, dated 2004)
